Assay [1] has as its system RKOp27 colon adenocarcinoma cells arrested by expression of ectopic p27Klp1. Nature of the assay: Alamar Blue cell viability assay, cell cycle specific mode of action, RKOp27 cells arrested by Ponasterone A-induced p27 expression. In kind it is cell-based. The settings on record: Homo sapiens, cells arrested by p27 induced with 10 μM Ponasterone A, 72 hours incubation, 16000 cells per well, read-out: IC50 RKO p27 induced. How it is done: To determine the cell cycle specific mode of action, subclones of RKO colon adenocarcinoma cells (RKOp27 or RKOp21 as described by Schmidt et al. in Oncogene 19, 2423-2429; 2000) are seeded into 96 well flat bottom plates at a density of 16000 cells per well in a volume of 50 μl per well in DMEM growth medium with 10% FCS containing 10 μM Ponasterone A. 24 hours after seeding the 50 μl each of the compound dilutions in DMEM medium are added into each well of the 96 Well plate. Each compound dilution is tested as quadruplicates. Wells containing untreated control cells are filled with 50 μl DMEM medium containing 1% DMSO. The cells are then incubated with the substances for 72 hours at 37° C. in a humidified atmosphere containing 5% carbon dioxide. To determine the viability of the cells, 10 μl of an Alamar Blue solution (Biosource) are added and the fluorescence was measured at an extinction of 544 nm and an emission of 590 nm. For the calculation of the cell viability the emission value from untreated cells is set as 100% viability and the emission rates of treated cells are set in relation to the values of untreated cells. Viabilities are expressed as % values. Viability is compared of proliferating cells grown in the absence of the inducer Ponasterone A, versus viability of cells arrested by the expression of ectopic p27Klp1 induced by Ponasterone A. The data of this experimental setting are summarized in table A (2nd column).
Background: Alamar Blue is a resazurin reagent that responds to reducing activity.

The subject of assay [2] is RKO (RKOp27) human colon adenocarcinoma cells. Description: Alamar Blue cell viability assay, anti-proliferative/cytotoxic activity, proliferating (uninduced) RKOp27 cells. In kind it is cell-based. The settings on record: no Ponasterone A, 72 hours incubation, 4000 cells per well, read-out: IC50 RKO p27 uninduced. On the procedure: The anti-proliferative/cytotoxic activity of the compounds described herein, can be tested on subclones of RKO (RKOp27) human colon adenocarcinoma cells (Schmidt et al., Oncogene 19, 2423-2429; 2000) using the Alamar Blue cell viability assay (described in O'Brien et al. Eur J Biochem 267, 5421-5426, 2000). The compounds are dissolved as 20 mM solutions in dimethylsulfoxide (DMSO) and subsequently diluted in semi-logarithmic steps. DMSO dilutions are further diluted 1:100 into Dulbecco's modified Eagle's medium (DMEM) containing 10% fetal calf serum to a final concentration twice as much as the final concentration in the test. RKO subclones are seeded into 96 well flat bottom plates at a density of 4000 cells per well in a volume of 50 μl per well. 24 hours after seeding the 50 μl each of the compound dilutions in DMEM medium are added into each well of the 96 Well plate. Each compound dilution is tested as quadruplicates. Wells containing untreated control cells are filled with 50 μl DMEM medium containing 1% DMSO. The cells are then incubated with the substances for 72 hours at 37° C. in a humified atmosphere containing 5% carbon dioxide. To determine the viability of the cells, 10 μl of an Alamar Blue solution (Biosource) are added and the fluorescence was measured at an extinction of 544 nm and an emission of 590 nm. For the calculation of the cell viability the emission value from untreated cells is set as 100% viability and the emission rates of treated cells were set in relation to the values of untreated cells. Viabilities are expressed as % values.
The corresponding IC50 values of the compounds for anti-proliferative/cytotoxic activity are determined from the concentration-effect curves.
Representative IC50 values for anti-proliferation/cytotoxicity determined in the aforementioned assay are described in the table A (1st column), in which the numbers of the compound correspond to the numbers of the examples.

The source of these data is US7517986B2, “Tetrahydropyridothiophenes for use in the treatment of cancer” (4SC AG, priority 2004, dated 2009).

Structures are written as SMILES. Where only a bound is given, the exact number is not on record here.

One may read the IC50 as the concentration at which inhibition is half-maximal. As to `Cc1ncsc1CCOC(=O)N1CCc2c(sc(NC(=O)c3cccnc3)c2C#N)C1` [Compound 17, 3-Cyano-2-[(1-Pyridin-3-yl-methanoyl)-amino]-4,7-dihydro-5H-thieno[2,3-c]pyridine-6-carboxylic Acid 2-(4-methyl-thiazol-5-yl)-ethyl Ester], the IC50 in assay [1] is above 100000 nM; in assay [2], at most 3000 nM.
Take `CCOC(=O)N1CCc2c(sc(NC(=O)c3cccnc3)c2C#N)C1` [Compound 1, N-(6-ethoxycarbonyl-3-cyano-4,5,6,7-tetrahydro-thieno[2,3-c]pyridin-2-yl)-nicotinyl Amide]: the IC50 in assay [1] is above 100000 nM; in assay [2], 500 nM.
Take `CCOC(=O)N1CCc2c(sc(NC(=O)c3cccs3)c2C#N)C1` [Compound 7, 3-Cyano-2-[(1-thiophen-2-yl-methanoyl)-amino]-4,7-dihydro-5H-thieno[2,3-c]pyridine-6-carboxylic Acid Ethyl Ester]: the IC50 in assay [1] is above 100000 nM; in assay [2] it was 2000 nM.
As to `CCOC(=O)N1CCc2c(sc(NC(=O)C3=Cc4ccccc4OC3)c2C#N)C1` [Compound 6, 2-[(1-2H-Chromen-3-yl-methanoyl)-amino]-3-cyano-4,7-dihydro-5H-thieno[2,3-c]pyridine-6-carboxylic Acid Ethyl Ester], the IC50 in assay [1] was above 100000 nM; in assay [2], 2000 nM.
For `CCOC(=O)N1CCc2c(sc(NC(=O)c3cc4ccccc4s3)c2C#N)C1` [Compound 8, 2-[(1-Benzo[b]thiophen-2-yl-methanoyl)-amino]-3-cyano-4,7-dihydro-5H-thieno[2,3-c]pyridine-6-carboxylic Acid Ethyl Ester], in that order: above 100000 nM and 5000 nM.
In the same order, the values of `CCCC(=O)N1CCc2c(sc(NC(=O)c3cccnc3)c2C#N)C1` [Compound 14, N-(6-Butanoyl-3-cyano-4,5,6,7-tetrahydro-thieno[2,3-c]pyridin-2-yl)-nicotinyl Amide] are above 100000 nM and at most 3000 nM.
For `CCOC(=O)N1CCc2c(sc(NC(=O)c3ccc4c(c3)OCC4)c2C#N)C1` [Compound 12], in that order: above 100000 nM and at most 3000 nM.
On to `CCOC(=O)N1CCc2c(sc(NC(=O)c3ccc(C)s3)c2C#N)C1` [Compound 10, 3-Cyano-2-{[1-(5-methyl-thiophen-2-yl)-methanoyl]-amino}-4,7-dihydro-5H-thieno[2,3-c]pyridine-6-carboxylic Acid Ethyl Ester], for which the IC50 in assay [1] was above 100000 nM; in assay [2], 200 nM.
For `CCOC(=O)N1CCc2c(sc(NC(=O)c3c(C)noc3-c3ccccc3)c2C#N)C1` [Compound 5, 3-Cyano-2-{[1-(3-methyl-5-phenyl-isoxazol-4-yl)-methanoyl]-amino}-4,7-dihydro-5H-thieno [2,3-c]pyridine-6-carboxylic Acid Ethyl Ester], the IC50 in assay [1] is above 100000 nM; in assay [2], 2000 nM.
In the same order, the values of `CCSC(=O)N1CCc2c(sc(NC(=O)c3cccnc3)c2C#N)C1` [Compound 16, 3-Cyano-2-[(1-pyridin-3-yl-methanoyl)-amino]-4,7-dihydro-5H-thieno[2,3-c]pyridine-6-carbothioic Acid S-ethyl Ester] are above 100000 nM and at most 3000 nM.
